Measurements taken from publication PMC6801448, “The Antioxidant and Antiproliferative Activities of 1,2,3-Triazolyl-L-Ascorbic Acid Derivatives” (International Journal of Molecular Sciences, 2019).
Where two headings read alike, the source gives them in different places.

Columns and labels:
[1] = DPPH radical scavenging assay; assay type: biochemical
Protocol: Likewise, L-ASA, the 1,2,3-triazole L-ASA derivatives with free C2-OH and C3-OH groups were expected to be potent antioxidants. Therefore, they were tested as radical scavengers by reaction with the stable free radical 2,2-diphenyl-1-picrylhydrazyl (DPPH^•).
Antioxidant capacity of selected compounds was assessed by 2,2-diphenyl-1-picrylhydrazyl assay (DPPH, Sigma Aldrich, Darmstadt, Germany), in which the antioxidant activity of compounds is measured by the reaction between a stable radical of 1,1-diphenyl-2-picylhydrazil (DPPH^•) and a selected compound according to the manufacturer recommendations. Briefly, compounds 4b–4e, 4f–4h, 4k, 4l, 4o, 4p–4s, 4t, 4v, 7c–7f, 7i–7n, 7q, 7p, and 7o were tested at 0.06, 0.12, 0.18, 0.23, 0.25, and 0.28 mM. L-ascorbic acid was used as the reference compound. Absorbance was measured 5 and 10 min after incubation of the compounds with the DPPH reagent. The reduction of DPPH with selected compounds was monitored by measuring the absorbance at a wavelength of 517 nm on the monochromator (Infinite M200 PRO, TECAN, Männedorf, Switzerland).

[2] = tested on: A549 (lung adenocarcinoma); experiment: MTT proliferation assay, A549; assay type: cell-based; conditions: Homo sapiens, 72 h
Protocol: (§1) Human tumor cell lines HeLa (cervical carcinoma), SW620 (colorectal adenocarcinoma, metastatic), A549 (lung adenocarcinoma), MCF−7 (breast adenocarcinoma), CFPAC-1 (pancreatic adenocarcinoma, metastatic), HCT-116 (colorectal carcinoma), and HepG2 (hepatocellular carcinoma), and normal cell lines HFF-1 (foreskin fibroblasts) and WI-38 (immortalized human lung fibroblast), were from the US American Type Culture Collection (ATCC, Manassas, VA, USA). Cells were cultured in a liquid nutrient medium (Dulbecco’s Modified Eagle Medium, LONZA, Basel, Switzerland) supplemented with 10% fetal bovine serum (FBS, Gibco, Grand Island, NY, USA), 2 mM L-glutamine (GIBCO, Grand Island, NY, USA), 100 μg/mL penicillin, and 100 μg/mL streptomycin (LONZA, Basel, Switzerland), in an incubator (NÜVE, Ankara, Turkey), at a humid atmosphere with 5% CO2 at 37 °C. Trypsin/EDTA Solution (Lonza, Basel, Switzerland), was used for cell passaging and cell detachment.
(§2) Adherent cells were seeded on 96 well microtiter plates (Falcon, New York, NY, USA) at a seeding density of 5000 cells per well, added in 150 μL of cell suspension in a nutrient medium. 24 h after seeding, cells were treated with compound 4b–4g, 4i, 4k–4t, 4v, 7c–7g, and 7i–7q dilutions in the range of 0.01 μM to 100 μM. L-ascoric acid (Sigma Aldrich, Darmstadt, Germany) and Carboxyamidotriazole (Sigma Aldrich, Darmstadt, Germany) were used as control compounds. Incubation of the cells with the compounds were performed for 72 h in a 5% CO2, in humid atmosphere at 37 °C. After incubation, nutrient medium was removed and 40 μL of the MTT reagent ([…]-2,5-diphenyltetrazole bromide (Invitrogen, Carlsbad, CA, USA) was added to each well. 3 h after incubation, 160 μL of DMSO (VWR CHEMICALS, Radnor, PA, USA) were added to each well to dissolve the crystals of purple formazane. The absorbance was measured at 570 nm (TECAN SUNRISE Microtiter plate reader (Männedorf, Switzerland). The experimentally measured optical densities (OD) were converted to the PG (percentage of growth), using the formulas according to the protocol assumed by NIH (National Institute of Health). The IC50 values (concentration causing 50% cell growth inhibition) for each compound were calculated by regression analysis of the survival count curve of the concentrations of the tested compounds. The results were processed in Excel 2010 (Microsoft, Redmond, WA, USA).

[3] = tested on: CFPAC-1 (ductal pancreatic adenocarcinoma); experiment: MTT proliferation assay, CFPAC-1; assay type: cell-based; conditions: Homo sapiens, 72 h
Protocol: as §1, §2

[4] = tested on: HCT-116 (colorectal carcinoma); experiment: MTT proliferation assay, HCT-116; assay type: cell-based; conditions: Homo sapiens, 72 h
Protocol: as §1, §2

[5] = tested on: HeLa (cervical carcinoma); experiment: MTT proliferation assay, HeLa; assay type: cell-based; conditions: Homo sapiens, 72 h
Protocol: as §1, §2

[6] = tested on: HepG2 (hepatocellular carcinoma); experiment: MTT proliferation assay, HepG2; assay type: cell-based; conditions: Homo sapiens, 72 h
Protocol: as §1, §2

[7] = tested on: MCF-7 (breast adenocarcinoma); experiment: MTT proliferation assay, MCF-7; assay type: cell-based, Human; conditions: Homo sapiens, MCF7; 72 h, MTT
Protocol: as §1, §2

[8] = tested on: SW620 (colorectal adenocarcinoma, metastatic); experiment: MTT proliferation assay, SW620; assay type: cell-based; conditions: Homo sapiens, SW-620, 72 h
Protocol: as §1, §2

WI-38 (lung fibroblasts) = experiment: MTT proliferation assay, WI-38; assay type: cell-based; conditions: Homo sapiens, 72 h, normal lung fibroblasts
Protocol: as §1, §2

[9] = tested on: HFF-1 (foreskin fibroblasts); experiment: MTT proliferation assay, HFF-1; assay type: cell-based; conditions: Homo sapiens, 72 h, normal foreskin fibroblasts
Protocol: as §1, §2

[10] = 5 min treatment, read-out: IC50 of DPPH• inhibition, Treatm. 5 min
[11] = 10 min treatment, read-out: IC50 of DPPH• inhibition, Treatm. 10 min

| Compound | IC50 [1, 10] [µM] | IC50 [1, 11] [µM] | IC50 [2] [µM] | IC50 [3] [µM] | IC50 [4] [µM] | IC50 [5] [µM] | IC50 [6] [µM] | IC50 [7] [µM] | IC50 [8] [µM] | melting point [°C] | IC50 (WI-38 (lung fibroblasts)) [µM] | IC50 [9] [µM] |
| --- | --- | --- | --- | --- | --- | --- | --- | --- | --- | --- | --- | --- |
| O=C1O[C@H]([C@@H](O)Cn2cc(-c3cc(C(F)(F)F)cc(C(F)(F)F)c3)nn2)C(O)=C1O [Compound 4c, 6-deoxy-6-[4-(3,5-bis(trifluoromethyl)phenyl)-1,2,3-triazol-1-yl]-L-ascorbic acid] | 260 ± 20 | 250 | > 100 | > 100 | > 100 | > 100 | > 100 | > 100 | > 100 | ≥ 250 | > 100 | > 100 |
| CCCCCc1ccc(-c2cn(C[C@H](O)[C@H]3OC(=O)C(O)=C3O)nn2)cc1 [Compound 4k, 6-deoxy-6-[4-(4-pentylphenyl)-1,2,3-triazol-1-yl]-L-ascorbic acid] | 210 ± 70 | 130 ± 40 | > 100 | > 100 | > 100 | > 100 | > 100 | 26.9 | > 100 | 237 to 239 | > 100 | 0.21 |
| O=C1O[C@H]([C@@H](O)Cn2cc(C3CC3)nn2)C(O)=C1O [Compound 4l, 6-[4-cyclopropyl-1,2,3-triazol-1-yl]-6-deoxy-L-ascorbic acid] | 170 ± 160 | 160 ± 140 | > 100 | > 100 | > 100 | > 100 | > 100 | > 100 | > 100 | 119 to 121 | > 100 | 4.61 |
| O=C1O[C@H]([C@@H](O)Cn2cc(CCO)nn2)C(O)=C1O [Compound 4q, 6-deoxy-6-(4-(2-hydroxyethyl)-1,2,3-triazol-1-yl)-L-ascorbic acid] | 240 ± 20 | 230 | > 100 | > 100 | 63.3 | > 100 | > 100 | > 100 | > 100 | 184 to 186 | > 100 | > 100 |
| CC(C)(C)c1cn(C[C@H](O)[C@H]2OC(=O)C(O)=C2O)nn1 [Compound 4o, 6-[4-(tert-butyl)-1,2,3-triazol-1-yl]-6-deoxy-L-ascorbic acid] | 240 ± 28 | 240 ± 40 | > 100 | > 100 | > 100 | 93 | > 100 | > 100 | > 100 | ≥ 250 | 95 | < 0.01 |
| O=C1O[C@H]([C@@H](O)Cn2cc(-c3ccccc3O)nn2)C(O)=C1O [Compound 4i, 6-deoxy-6-[2-hydroxyphenyl-1,2,3-triazol-1-yl]-L-ascorbic acid] | > 280 | > 280 | > 100 | > 100 | > 100 | > 100 | > 100 | > 100 | > 100 | 129 to 131 | > 100 | 0.92 |
| CCCCCCCCCCc1cn(C[C@H](O)[C@H]2OC(=O)C(O)=C2O)nn1 [Compound 4n, 6-(4-decyl-1,2,3-triazol-1-yl)-6-deoxy-L-ascorbic acid] | 150 ± 60 | 100 ± 30 | > 100 | > 100 | > 100 | > 100 | > 100 | > 100 | > 100 | 140 to 142 | > 100 | 0.06 |
| CCCCc1cn(C[C@H](O)[C@H]2OC(=O)C(O)=C2O)nn1 [Compound 4m, 6-(4-butyl-1,2,3-triazol-1-yl)-6-deoxy-L-ascorbic acid] | > 280 | > 280 | > 100 | > 100 | > 100 | > 100 | > 100 | > 100 | > 100 | 98 to 99 | > 100 | 0.12 |
| O=C1O[C@H]([C@@H](O)Cn2cc(CCCCl)nn2)C(O)=C1O [Compound 4p, 6-[4-(3-chloropropyl)-1,2,3-triazol-1-yl]-6-deoxy-L-ascorbic acid] | 150 ± 60 | 150 ± 60 | > 100 | > 100 | > 100 | 48 | > 100 | 99.6 | > 100 | 86 to 88 | 52.6 | 6.05 |

Further lines, with some results ahead:

| IC50 [1, 10] [µM] | IC50 [1, 11] [µM] | IC50 [2] [µM] | IC50 [3] [µM] | IC50 [4] [µM] | IC50 [5] [µM] | IC50 [6] [µM] | IC50 [7] [µM] | IC50 [8] [µM] | melting point [°C] | Compound | IC50 (WI-38 (lung fibroblasts)) [µM] | IC50 [9] [µM] |
| --- | --- | --- | --- | --- | --- | --- | --- | --- | --- | --- | --- | --- |
| 270 ± 20 | 250 | > 100 | > 100 | > 100 | > 100 | > 100 | > 100 | > 100 | 132 to 134 | O=C1O[C@H]([C@@H](O)Cn2cc(CNS(=O)(=O)c3ccc(Cl)cc3)nn2)C(O)=C1O [Compound 4s] | > 100 | 0.4 |
| 250 | 270 ± 20 | > 100 | > 100 | > 100 | > 100 | > 100 | > 100 | > 100 | 125 to 127 | Cc1ccc(S(=O)(=O)NCc2cn(C[C@H](O)[C@H]3OC(=O)C(O)=C3O)nn2)cc1 [Compound 4r] | > 100 | > 100 |
| 220 ± 80 | 120 ± 20 | > 100 | > 100 | > 100 | > 100 | > 100 | > 100 | > 100 | 198 to 200 | O=C1O[C@H]([C@@H](O)Cn2cc(CNS(=O)(=O)c3ccc(F)cc3Cl)nn2)C(O)=C1O [Compound 4t] | > 100 | > 100 |
| 270 ± 10 | 270 | 98 | > 100 | > 100 | > 100 | > 100 | 37.3 | > 100 | ≥ 250 | O=C1O[C@H]([C@@H](O)Cn2cc(CSC(=S)N3CCNCC3)nn2)C(O)=C1O [Compound 4v] | > 100 | – |
